Laboratory results: patent US8901118B2, “Compounds and methods for kinase modulation, and indications therefor” (Plexxikon Inc., priority 2010, dated 2014)
pIC50: −log10 of the molar value.

Columns and labels:
[1] = target: T1, BCR-NTRK3 BaF3 cells (Homo sapiens, UniProt Q16288); experiment: BaF3 BCR-NTRK3 cell proliferation assay (ATPlite); assay type: cell-based; conditions: read-out: Inhibition of Cell Proliferation IC50, BCR/BaF3 TrkC
T1 construct: fused on or other part: P11274 (Breakpoint cluster region protein)
T1 sequence (Q16288 whole entry, the tested form may be a part): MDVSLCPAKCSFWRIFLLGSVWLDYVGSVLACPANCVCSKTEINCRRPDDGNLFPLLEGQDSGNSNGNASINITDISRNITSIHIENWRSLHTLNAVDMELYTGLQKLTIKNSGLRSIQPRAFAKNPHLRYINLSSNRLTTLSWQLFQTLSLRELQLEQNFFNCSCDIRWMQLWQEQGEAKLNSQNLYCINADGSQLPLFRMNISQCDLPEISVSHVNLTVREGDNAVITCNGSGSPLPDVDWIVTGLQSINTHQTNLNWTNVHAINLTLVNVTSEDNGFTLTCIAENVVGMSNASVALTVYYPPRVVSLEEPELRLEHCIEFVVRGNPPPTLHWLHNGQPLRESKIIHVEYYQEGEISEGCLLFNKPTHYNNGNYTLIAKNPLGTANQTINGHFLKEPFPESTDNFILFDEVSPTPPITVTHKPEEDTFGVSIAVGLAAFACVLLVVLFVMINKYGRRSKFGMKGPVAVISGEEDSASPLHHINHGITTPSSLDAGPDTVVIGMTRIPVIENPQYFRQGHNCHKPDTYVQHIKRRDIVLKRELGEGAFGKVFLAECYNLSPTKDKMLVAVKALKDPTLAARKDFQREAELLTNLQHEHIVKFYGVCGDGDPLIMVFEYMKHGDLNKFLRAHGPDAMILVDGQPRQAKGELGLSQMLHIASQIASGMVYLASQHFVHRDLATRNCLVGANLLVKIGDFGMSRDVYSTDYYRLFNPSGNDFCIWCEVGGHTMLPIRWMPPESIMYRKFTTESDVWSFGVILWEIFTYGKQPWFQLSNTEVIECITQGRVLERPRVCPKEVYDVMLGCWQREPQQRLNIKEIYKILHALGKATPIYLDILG
In short: (§1)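 Growth inhibition over 3 days at 37 °C; IC50 from ATPlite luminescence, 8 concentrations (1:3 steps, max 10 μM). BaF3 fusion lines were tested without IL-3.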

[2] = target: T2, BCR-FMS BaF3 cells (Homo sapiens, UniProt P07333); experiment: BaF3 BCR-FMS cell proliferation assay (ATPlite); assay type: cell-based; conditions: read-out: Inhibition of Cell Proliferation IC50, BCR/BaF3 Fms
T2 construct: fused on or other part: P11274 (Breakpoint cluster region protein)
T2 sequence (P07333 582-910): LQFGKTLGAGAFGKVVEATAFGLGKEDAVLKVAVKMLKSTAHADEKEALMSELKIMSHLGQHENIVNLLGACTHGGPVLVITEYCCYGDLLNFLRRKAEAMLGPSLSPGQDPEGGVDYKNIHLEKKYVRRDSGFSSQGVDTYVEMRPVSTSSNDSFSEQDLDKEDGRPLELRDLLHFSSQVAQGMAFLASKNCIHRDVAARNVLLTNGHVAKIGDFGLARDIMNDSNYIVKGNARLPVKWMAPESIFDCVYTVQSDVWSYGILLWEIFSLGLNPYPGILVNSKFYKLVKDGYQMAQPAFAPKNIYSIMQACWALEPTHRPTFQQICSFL
In short: as §1

[3] = target: CYP2C19 (Homo sapiens, UniProt P33261); experiment: CYP2C19 inhibition (fluorescent substrate CEC); assay type: in vitro ADME; conditions: read-out: Cyp IC50 2C19
Chain of CYP2C19 (P33261 whole entry): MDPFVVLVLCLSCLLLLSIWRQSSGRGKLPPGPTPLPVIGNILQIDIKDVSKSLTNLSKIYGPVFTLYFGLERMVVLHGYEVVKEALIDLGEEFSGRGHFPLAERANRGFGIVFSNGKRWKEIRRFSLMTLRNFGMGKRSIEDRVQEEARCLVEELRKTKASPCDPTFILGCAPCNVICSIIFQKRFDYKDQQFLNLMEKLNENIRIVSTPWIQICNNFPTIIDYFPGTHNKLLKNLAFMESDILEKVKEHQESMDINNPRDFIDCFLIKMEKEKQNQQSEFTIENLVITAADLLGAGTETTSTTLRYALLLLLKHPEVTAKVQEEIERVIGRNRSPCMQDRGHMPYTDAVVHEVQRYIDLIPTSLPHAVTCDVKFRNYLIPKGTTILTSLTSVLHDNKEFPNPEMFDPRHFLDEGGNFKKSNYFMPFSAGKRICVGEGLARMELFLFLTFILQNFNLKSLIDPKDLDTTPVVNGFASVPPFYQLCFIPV
In short: (§2)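 Test compounds, 10-point 1:1 serial dilutions in NADPH-regenerating cofactor mix, were preincubated 10 min at 37° C before recombinant enzyme and fluorogenic substrate reactions at 37° C (CYP1A2 15 min; CYP2C9 45 min; CYP2C19, 2D6 30 min). Product fluorescence was read at 409 ex with 460 em (1A2, 2C19) or 530 em (2C9, 2D6), and IC50 fitted from signal versus concentration.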

[4] = target: CYP2C9 (Homo sapiens, UniProt P11712); experiment: CYP2C9 inhibition (fluorescent substrate MFC); assay type: in vitro ADME; conditions: read-out: Cyp IC50 2C9
Chain of CYP2C9 (P11712 whole entry): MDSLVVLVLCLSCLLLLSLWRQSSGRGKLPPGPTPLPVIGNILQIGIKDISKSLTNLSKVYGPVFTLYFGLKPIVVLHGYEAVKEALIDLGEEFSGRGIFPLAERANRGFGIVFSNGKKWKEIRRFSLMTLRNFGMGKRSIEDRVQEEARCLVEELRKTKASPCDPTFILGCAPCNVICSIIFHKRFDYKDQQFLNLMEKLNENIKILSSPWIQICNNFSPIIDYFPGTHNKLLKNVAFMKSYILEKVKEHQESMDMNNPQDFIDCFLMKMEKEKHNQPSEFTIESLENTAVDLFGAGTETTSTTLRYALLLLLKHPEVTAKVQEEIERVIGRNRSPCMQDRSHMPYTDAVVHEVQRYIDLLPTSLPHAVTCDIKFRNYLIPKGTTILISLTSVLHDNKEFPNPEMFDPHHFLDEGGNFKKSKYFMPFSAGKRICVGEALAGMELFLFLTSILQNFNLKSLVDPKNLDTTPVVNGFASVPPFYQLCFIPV
In short: as §2

[5] = target: T3, BCR-KIT BaF3 cells (Homo sapiens, UniProt P10721); experiment: BaF3 BCR-KIT cell proliferation assay (ATPlite); assay type: cell-based; conditions: read-out: Inhibition of Cell Proliferation IC50, BCR/BaF3 Kit
T3 construct: fused on or other part: P11274 (Breakpoint cluster region protein)
T3 sequence (P10721 589-937): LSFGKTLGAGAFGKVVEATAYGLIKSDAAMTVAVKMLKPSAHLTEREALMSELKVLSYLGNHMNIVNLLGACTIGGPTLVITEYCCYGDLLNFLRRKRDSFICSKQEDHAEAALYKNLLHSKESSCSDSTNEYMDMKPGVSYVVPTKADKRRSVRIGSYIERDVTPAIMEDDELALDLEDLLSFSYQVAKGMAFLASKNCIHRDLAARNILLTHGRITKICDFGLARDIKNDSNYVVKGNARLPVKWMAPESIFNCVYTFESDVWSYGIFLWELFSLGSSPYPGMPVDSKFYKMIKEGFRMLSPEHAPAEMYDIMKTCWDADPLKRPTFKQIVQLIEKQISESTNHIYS
In short: as §1

SMILES	pIC50 [1]	pIC50 [2]	pIC50 [3]	pIC50 [4]	pIC50 [5]
Cc1ccc(Nc2ccc(C(=O)c3c[nH]c4ncc(Cl)cc34)c(F)n2)cn1 [Compound P-3044, (5-Chloro-1H-pyrrolo[2,3-b]pyridin-3-yl)-[2-fluoro-6-(6-methyl-pyridin-3-ylamino)-pyridin-3-yl]-methanone]	> 7.00	> 7.00	< 5.00	< 5.00	> 6.00
COc1ccc(Nc2ccc(Cc3c[nH]c4ncnc(OC)c34)c(F)n2)cn1 [Compound P-4001, [6-Fluoro-5-(4-methoxy-7H-pyrrolo[2,3-d]pyrimidin-5-ylmethyl)-pyridin-2-yl]-(6-methoxy-pyridin-3-yl)-amine]	> 8.00	> 8.00	> 5.30	< 5.00	> 6.00
COc1ccc(Nc2ccc(Cc3c[nH]c4ncnc(C)c34)c(F)n2)cn1 [Compound P-4002, [6-Fluoro-5-(4-methyl-7H-pyrrolo[2,3-d]pyrimidin-5-ylmethyl)-pyridin-2-yl]-(6-methoxy-pyridin-3-yl)-amine]	> 7.00	> 7.00	< 5.00	< 5.00	> 6.00
COc1ncnc2[nH]cc(Cc3ccc(Nc4ccc(Cl)nc4)nc3F)c12 [Compound P-4003, (6-Chloro-pyridin-3-yl)-[6-fluoro-5-(4-methoxy-7H-pyrrolo[2,3-d]pyrimidin-5-ylmethyl)-pyridin-2-yl]-amine]	> 7.00	> 7.00	< 5.00	< 5.00	< 6.00
COc1ncnc2[nH]cc(Cc3ccc(Nc4ccc(C5CC5)nc4)nc3F)c12 [Compound P-4004, (6-Cyclopropyl-pyridin-3-yl)-[6-fluoro-5-(4-methoxy-7H-pyrrolo[2,3-d]pyrimidin-5-ylmethyl)-pyridin-2-yl]-amine]	> 8.00	> 8.00	< 5.00	< 5.00	> 7.00
CCOc1ccc(Nc2ccc(Cc3c[nH]c4ncnc(OC)c34)c(F)n2)cn1 [Compound P-4005, (6-Ethoxy-pyridin-3-yl)-[6-fluoro-5-(4-methoxy-7H-pyrrolo[2,3-d]pyrimidin-5-ylmethyl)-pyridin-2-yl]-amine]	> 8.00	> 8.00	< 5.00	< 5.00	> 7.00
CCOc1ccc(Nc2ccc(Cc3c[nH]c4ncnc(C)c34)c(F)n2)cn1 [Compound P-4006, (6-Ethoxy-pyridin-3-yl)-[6-fluoro-5-(4-methyl-7H-pyrrolo[2,3-d]pyrimidin-5-ylmethyl)-pyridin-2-yl]-amine]	> 8.00	> 8.00	< 5.00	< 5.00	> 7.00
CCc1ccc(Nc2ccc(Cc3c[nH]c4ncnc(OC)c34)c(F)n2)cn1 [Compound P-4007, (6-Ethyl-pyridin-3-yl)-[6-fluoro-5-(4-methoxy-7H-pyrrolo[2,3-d]pyrimidin-5-ylmethyl)-pyridin-2-yl]-amine]	> 8.00	> 8.00	< 5.00	< 5.00	> 6.00
CCOc1ccc(Nc2ccc(Cc3c[nH]c4ncnc(OCCOC)c34)c(F)n2)cn1 [Compound P-4008, (6-Ethoxy-pyridin-3-yl)-{6-fluoro-5-[4-(2-methoxy-ethoxy)-7H-pyrrolo[2,3-d]pyrimidin-5-ylmethyl]-pyridin-2-yl}-amine]	> 7.00	> 8.00	< 5.00	< 5.00	> 6.00
CCc1ccc(Nc2ccc(Cc3c[nH]c4ncnc(C)c34)c(F)n2)cn1 [Compound P-4009, (6-Ethyl-pyridin-3-yl)-[6-fluoro-5-(4-methyl-7H-pyrrolo[2,3-d]pyrimidin-5-ylmethyl)-pyridin-2-yl]-amine]	> 8.00	> 8.00	5.00 to 5.30	< 5.00	> 6.00
COc1ncnc2[nH]cc(Cc3ccc(Nc4ccc(C)nc4)nc3F)c12 [Compound P-4010, [6-Fluoro-5-(4-methoxy-7H-pyrrolo[2,3-d]pyrimidin-5-ylmethyl)-pyridin-2-yl]-(6-methyl-pyridin-3-yl)-amine]	> 7.00	> 8.00	< 5.00	< 5.00	> 6.00
CCn1cc(Nc2ccc(Cc3c[nH]c4ncnc(OC)c34)c(F)n2)cn1 [Compound P-4011, (1-Ethyl-1H-pyrazol-4-yl)-[6-fluoro-5-(4-methoxy-7H-pyrrolo[2,3-d]pyrimidin-5-ylmethyl)-pyridin-2-yl]-amine]	> 6.00	> 8.00	< 5.00	5.00 to 5.30	< 6.00
CCOc1ncnc2[nH]cc(Cc3ccc(Nc4cnn(CC)c4)nc3F)c12 [Compound P-4012, [5-(4-Ethoxy-7H-pyrrolo[2,3-d]pyrimidin-5-ylmethyl)-6-fluoro-pyridin-2-yl]-(1-ethyl-1H-pyrazol-4-yl)-amine]	> 7.00	> 8.00	< 5.00	< 5.00	> 6.00
CCn1cc(Nc2ccc(Cc3c[nH]c4ncnc(C)c34)c(F)n2)cn1 [Compound P-4013, (1-Ethyl-1H-pyrazol-4-yl)-[6-fluoro-5-(4-methyl-7H-pyrrolo[2,3-d]pyrimidin-5-ylmethyl)-pyridin-2-yl]-amine]	> 6.00	> 8.00	< 5.00	> 5.30	> 6.00
CCn1cc(Nc2ccc(Cc3c[nH]c4ncnc(OCCOC)c34)c(F)n2)cn1 [Compound P-4014, (1-Ethyl-1H-pyrazol-4-yl)-{6-fluoro-5-[4-(2-methoxy-ethoxy)-7H-pyrrolo[2,3-d]pyrimidin-5-ylmethyl]-pyridin-2-yl}-amine]	> 6.00	> 7.00	< 5.00	5.00 to 5.30	< 6.00
COCCOc1ncnc2[nH]cc(Cc3ccc(Nc4ccc(C)nc4)nc3F)c12 [Compound P-4015, {6-Fluoro-5-[4-(2-methoxy-ethoxy)-7H-pyrrolo[2,3-d]pyrimidin-5-ylmethyl]-pyridin-2-yl}-(6-methyl-pyridin-3-yl)-amine]	> 7.00	> 8.00	< 5.00	< 5.00	< 6.00
CCc1ccc(Nc2ccc(Cc3c[nH]c4ncnc(OCCOC)c34)c(F)n2)cn1 [Compound P-4016, (6-Ethyl-pyridin-3-yl)-{6-fluoro-5-[4-(2-methoxy-ethoxy)-7H-pyrrolo[2,3-d]pyrimidin-5-ylmethyl]-pyridin-2-yl}-amine]	> 8.00	> 8.00	< 5.00	< 5.00	> 7.00
CCOc1ncnc2[nH]cc(Cc3ccc(Nc4ccc(C)nc4)nc3F)c12 [Compound P-4017, [5-(4-Ethoxy-7H-pyrrolo[2,3-d]pyrimidin-5-ylmethyl)-6-fluoro-pyridin-2-yl]-(6-methyl-pyridin-3-yl)-amine]	> 7.00	> 8.00	< 5.00	< 5.00	> 6.00
CCOc1ncnc2[nH]cc(Cc3ccc(Nc4ccc(OC)nc4)nc3F)c12 [Compound P-4018, [5-(4-Ethoxy-7H-pyrrolo[2,3-d]pyrimidin-5-ylmethyl)-6-fluoro-pyridin-2-yl]-(6-methoxy-pyridin-3-yl)-amine]	> 8.00	> 8.00	> 5.30	< 5.00	> 6.00
